The results in this text go back to patent publication US20210212321A1, “STABILIZED FUNGICIDAL COMPOSITION COMPRISING CYCLODEXTRIN” (Bayer CropScience LP, priority 2018, published 2021).

What all share (assay type): physicochemical
Data set [1] is described as follows: Storage of RAXIL PRO MD for two weeks with or without nitrogen purging; prothioconazole desthio quantified by LC-MS. The settings on record: sample D compared to samples A, B and C. The procedure:
RAXIL® PRO MD is a commercial product containing 1.47% prothioconazole, 0.29% tebuconazole, and 0.59% metalaxyl in an aqueous formulation. Samples of RAXIL® PRO MD were subjected to nitrogen purging by bubbling nitrogen gas through the samples for about 5 minutes. Control samples were not purged with nitrogen. The samples were then divided into the groups outlined in Table 1. Samples were either maintained in the dark or exposed to ambient light. In addition, certain samples were wrapped in foil to minimize contact with ambient oxygen while others were not. All samples were stored at room temperature.
After two weeks of storage under these conditions, prothioconazole desthio was quantified in each sample using liquid chromatography mass spectrometry (LC-MS) using a SCIEX TRIPLE QUAD™6500 and a standard curve generated with a prothioconazole desthio chemical standard.

A short description of data set [2]: Storage of Prothioconazole SC for two months with or without nitrogen purging; prothioconazole desthio quantified by LC-MS. The settings on record: sample D compared to samples A and B. The procedure:
All samples were stored in glass containers with exposure to ambient light at room temperature for two months. Certain samples were also wrapped with foil to limit exposure to ambient oxygen. At the conclusion of the storage period, prothioconazole desthio was quantified in each sample using LC-MS.
This study was conducted with the same group of samples stored for two months in containers made of plastic instead of glass, and similar results were observed.

Data set [3] in a line: Storage stability of aqueous prothioconazole solutions with or without cyclodextrins (LC-MS). The conditions noted are these: two weeks at 54° C. The procedure:
Aqueous solutions of prothioconazole (PTZ) at a concentration of about 1% to about 1.5% (w/w) were prepared. These samples were stored for two weeks at 54° C., for eight weeks at 40° C., or for 52 weeks at 20° C. The initial amount of PTZ in each sample was measured together with the final amount of PTZ after storage using LC-MS as outlined in Example 1. From these measurements the percentage of PTZ remaining after storage was calculated and ranged from about 94% to about 97% (see FIG. 1A).
In a separate experiment, the ability of two different cyclodextrins, 2-hydroxypropyl-β cyclodextrin (HPCD) and methyl-β cyclodextrin (MeCD), to stabilize PTZ was evaluated. Aqueous solutions of PTZ at a concentration of about 1% to about 1.5% (w/w) were mixed with 15% (w/w) HPCD or 15% (w/w) MeCD. A control sample contained no cyclodextrins. The samples were stored for two weeks at 54° C., and the percentage of PTZ remaining after storage was calculated as before using LC-MS.

Data set [4] in a line: Storage stability of RAXIL PRO MD + penflufen with increasing methyl cyclodextrin (HPLC). The settings on record: RAXIL PRO MD+PFL (1.38% w/w), highest concentration of cyclodextrin (MeCD); two weeks at 54° C. From the text: A sample containing PTZ without any PFL or cyclodextrin was included as the “Control” in FIGS. 3 and 4.
The nature of data set [5]: Storage stability of prothioconazole/penflufen mixture with 25 wt % MeCD at various temperatures (HPLC). The conditions noted are these: for % Degradation (PTZ) / % PTZ / % PFL: with 25 wt % MeCD. The procedure: Aqueous solutions of a mixture of prothioconazole (PTZ) at a concentration of about 1.5% (w/w), and penflufen at a concentration of about 1.65% (w/w), were prepared and physically mixed with MeCD at 25 wt %. These samples were stored for two weeks at 54° C., for eight weeks at 40° C., or for 6 months at 30° C. The initial amount of PTZ or PFL in each sample was measured together with the final amount of PTZ or PLF after storage using HPLC.

`OC(Cc1ccccc1Cl)(Cn1nc[nH]c1=S)C1(Cl)CC1` (racemic) [Prothioconazole, 2-[2-(1-chlorocyclopropyl)-3-(2-chloro-phenyl)-2-hydroxy-propyl]-2,4-dihydro-3H-1,2,4-triazole-3-thione]: in data set [1], the “Level of degradation to prothioconazole desthio, samples not purged with nitrogen versus nitrogen-stabilized samples and samples stored in the dark” value is given as “over ten times higher”. In data set [2], the “Level of degradation to prothioconazole desthio, sample exposed to light and ambient oxygen versus nitrogen-stabilized samples” value is listed as “about ten times higher”. Moreover, the “degradation of PTZ” value in data set [3] (mixed with 15% (w/w) HPCD) and in data set [3] (mixed with 15% (w/w) MeCD) was “no observable degradation” throughout. In data set [4], the “reduction in degradation of PTZ” value was 86%. The “% Degradation (PTZ)” value in data set [5] (Table 3, 30° C. for 6 months) turned out to be 2.01%; in data set [5] (Table 3, 40° C. for 8 weeks), 4.03%; in data set [5] (Table 3, 54° C. for 2 weeks), 2.68%; in data set [5] (Table 3, T0), 0%; in data set [5] (Table 4, 30° C. for 6 months), 2.01%; in data set [5] (Table 4, 40° C. for 8 weeks) it was 4.70%. Also, the “% Degradation (PTZ)” value came out at 2.01% in data set [5] (Table 4, 54° C. for 2 weeks) and 0% in data set [5] (Table 4, T0). The “% PTZ” value in data set [5] (Table 3, 30° C. for 6 months) is 1.46%; in data set [5] (Table 3, 40° C. for 8 weeks), 1.43%; in data set [5] (Table 3, 54° C. for 2 weeks), 1.45%; in data set [5] (Table 3, T0) it was 1.49%; in data set [5] (Table 4, 30° C. for 6 months), 1.46%; in data set [5] (Table 4, 40° C. for 8 weeks), 1.42%. For the same compound, the “% PTZ” value amounted to 1.46% in data set [5] (Table 4, 54° C. for 2 weeks) and 1.49% in data set [5] (Table 4, T0).
In the case of `Cc1nn(C)c(F)c1C(=O)Nc1ccccc1C(C)CC(C)C` (stereo not shown) [Penflufen, N[2-(1,3-dimethylbutyl)phenyl]-5-fluoro-1,3-dimethyl pyrazole-4-carboxamide], the “reduction in degradation of PFL” value in data set [4] is recorded as 65%. In addition, the “% Degradation (PFL)” value in data set [5] (0 weeks, 1.65 % (w/w)) came to 0%. Besides, the “% PFL” value in data set [5] (Table 3, 30° C. for 6 months) is 1.62%; in data set [5] (Table 3, 40° C. for 8 weeks) it was 1.54%; in data set [5] (Table 3, 54° C. for 2 weeks), 1.6%; in data set [5] (Table 3, T0) it was 1.68%; in data set [5] (Table 4, 30° C. for 6 months), 1.58%; in data set [5] (Table 4, 40° C. for 8 weeks), 1.60%. In addition, the “% PFL” value is listed as 1.58% in data set [5] (Table 4, 54° C. for 2 weeks) and 1.64% in data set [5] (Table 4, T0).
